Measurements published in article PMC12736120, “First-in-Human Phase I Clinical Trial of SLC-391, a Novel and Selective AXL Inhibitor, in Patients with Advanced Solid Tumours” (Pharmaceuticals, 2025).

Experiment: Phase I safety and tolerability (DLTs, adverse events, laboratory, ECG)
Format: in vivo
Method: This study employed a standard 3 + 3 dose escalation design with a starting dose of 25 mg QD. […] Dose escalation decisions took into account all available data from evaluable subjects as well as PK and the safety profile of prior dose cohorts. […] There was a minimum 5-day stagger between dosing of the first and second subjects in each dose cohort. Dose escalation decisions were made by a data review committee (DRC) composed of, at minimum, the medical monitor, at least one principal investigator, and a sponsor representative, per the study DRC Plan. Dose escalation could continue until 2 or more subjects in the same dose cohort experienced a dose-limiting toxicity (DLT). DLTs were defined as Grade 3 or 4 adverse drug reactions (ADRs), with grades as defined in the National Cancer Institute Common Toxicity Criteria for Adverse Events (NCI-CTCAE) version 5.0. […] The MTD was defined as the highest dose at which no more than 1 of 6 subjects experienced a DLT during cycle 1 of the study drug. The MTD would have been exceeded if 2 or more subjects in a dose cohort of up to 6 subjects experienced a DLT. Subjects could continue treatment until disease progression, unacceptable toxicity, death, withdrawal of consent, or loss to follow-up.
Before enrolment in the study, all patients received a detailed medical history and physical examination. Clinical laboratory evaluations included clinical chemistry, complete blood count, urinalysis, coagulation factors, and a lipid panel. Other safety assessments included vital signs, physical examination, electrocardiogram, and echocardiogram with multigated acquisition (ECHO/MUGA). Safety assessments were performed on days 1, 8, 15, and 21 of cycle 1, and on day 1 of cycles 2 to 6.

[1] = Grade 1, Overall Study (N = 35)
[2] = Grade 2, Overall Study (N = 35)

What does the source list for `Nc1ncc(-c2cnn(C3CCNCC3)c2)cc1-c1nnc(CC2CC2)o1` [SLC-391, 3-(5-[cyclopropylmethyl]-1,3,4-oxadiazol-2-yl)-5-(1-[piperidin-4-yl]-1H-pyrazol-4-yl)-pyridin-2-amine]?
TEAE: Abdominal distension [1]: 4 (11.4) n (%); TEAE: Abdominal pain [1]: 4 (11.4) n (%); TEAE: Back pain [1]: 1 (2.9) n (%); TEAE: Blood and lymphatic system disorders [1]: 1 (2.9) n (%); TEAE: Chills [1]: 6 (17.1) n (%); TEAE: Constipation [1]: 10 (28.6) n (%); TEAE: Cough [1]: 6 (17.1) n (%); TEAE: Decreased appetite [1]: 7 (20.0) n (%); TEAE: Diarrhoea [1]: 14 (40.0) n (%); TEAE: Dizziness [1]: 4 (11.4) n (%); TEAE: Dysgeusia [1]: 1 (2.9) n (%); TEAE: Dyspnoea [1]: 2 (5.7) n (%); TEAE: Fatigue [1]: 10 (28.6) n (%); TEAE: Gastrointestinal disorders [1]: 15 (42.9) n (%); TEAE: General disorders and administration site conditions [1]: 12 (34.3) n (%); TEAE: Haematuria [1]: 4 (11.4) n (%); TEAE: Headache [1]: 5 (14.3) n (%); TEAE: Infections and infestations [1]: 1 (2.9) n (%); TEAE: Investigations [1]: 7 (20.0) n (%); TEAE: Metabolism and nutrition disorders [1]: 5 (14.3) n (%); TEAE: Musculoskeletal and connective tissue disorders [1]: 7 (20.0) n (%); TEAE: Nausea [1]: 15 (42.9) n (%); TEAE: Nervous system disorders [1]: 11 (31.4) n (%); TEAE: Oedema peripheral [1]: 3 (8.6) n (%); TEAE: Psychiatric disorders [1]: 3 (8.6) n (%); TEAE: Pyrexia [1]: 4 (11.4) n (%); TEAE: Renal and urinary disorders [1]: 3 (8.6) n (%); TEAE: Respiratory, thoracic, and mediastinal disorders [1]: 5 (14.3) n (%); TEAE: Skin and subcutaneous tissue disorders [1]: 6 (17.1) n (%); TEAE: Vomiting [1]: 13 (37.1) n (%); TEAE: Weight decreased [1]: 6 (17.1) n (%); Any treatment-emergent adverse event (TEAE) (Grade 2, Overall BID (N = 15)): 7 (46.7) n (%); TEAE: Abdominal distension (Grade 2, Overall BID (N = 15)): 1 (6.7) n (%); TEAE: Abdominal pain (Grade 2, Overall BID (N = 15)): 0 n (%); TEAE: Back pain (Grade 2, Overall BID (N = 15)): 2 (13.3) n (%); TEAE: Blood and lymphatic system disorders (Grade 2, Overall BID (N = 15)): 0 n (%); TEAE: Constipation (Grade 2, Overall BID (N = 15)): 2 (13.3) n (%); TEAE: Cough (Grade 2, Overall BID (N = 15)): 1 (6.7) n (%); TEAE: Decreased appetite (Grade 2, Overall BID (N = 15)): 4 (26.7) n (%); TEAE: Diarrhoea (Grade 2, Overall BID (N = 15)): 2 (13.3) n (%); TEAE: Dysgeusia (Grade 2, Overall BID (N = 15)): 2 (13.3) n (%); TEAE: Dyspnoea (Grade 2, Overall BID (N = 15)): 5 (33.3) n (%); TEAE: Fatigue (Grade 2, Overall BID (N = 15)): 5 (33.3) n (%); TEAE: Gastrointestinal disorders (Grade 2, Overall BID (N = 15)): 5 (33.3) n (%); TEAE: General disorders and administration site conditions (Grade 2, Overall BID (N = 15)): 6 (40.0) n (%); TEAE: Haematuria (Grade 2, Overall BID (N = 15)): 1 (6.7) n (%); TEAE: Infections and infestations (Grade 2, Overall BID (N = 15)): 5 (33.3) n (%); TEAE: Investigations (Grade 2, Overall BID (N = 15)): 1 (6.7) n (%); TEAE: Metabolism and nutrition disorders (Grade 2, Overall BID (N = 15)): 5 (33.3) n (%); TEAE: Musculoskeletal and connective tissue disorders (Grade 2, Overall BID (N = 15)): 3 (20.0) n (%); TEAE: Nausea (Grade 2, Overall BID (N = 15)): 4 (26.7) n (%); TEAE: Nervous system disorders (Grade 2, Overall BID (N = 15)): 2 (13.3) n (%); TEAE: Oedema peripheral (Grade 2, Overall BID (N = 15)): 1 (6.7) n (%); TEAE: Psychiatric disorders (Grade 2, Overall BID (N = 15)): 2 (13.3) n (%); TEAE: Pyrexia (Grade 2, Overall BID (N = 15)): 0 n (%); TEAE: Renal and urinary disorders (Grade 2, Overall BID (N = 15)): 1 (6.7) n (%); TEAE: Respiratory, thoracic, and mediastinal disorders (Grade 2, Overall BID (N = 15)): 6 (40.0) n (%); TEAE: Skin and subcutaneous tissue disorders (Grade 2, Overall BID (N = 15)): 0 n (%); TEAE: Urinary tract infection (Grade 2, Overall BID (N = 15)): 3 (20.0) n (%); TEAE: Vascular disorders (Grade 2, Overall BID (N = 15)): 1 (6.7) n (%); TEAE: Vomiting (Grade 2, Overall BID (N = 15)): 1 (6.7) n (%); Any treatment-emergent adverse event (TEAE) (Grade 2, Overall QD (N = 20)): 12 (60.0) n (%); TEAE: Abdominal distension (Grade 2, Overall QD (N = 20)): 1 (5.0) n (%); TEAE: Abdominal pain (Grade 2, Overall QD (N = 20)): 1 (5.0) n (%); TEAE: Back pain (Grade 2, Overall QD (N = 20)): 1 (5.0) n (%); TEAE: Blood and lymphatic system disorders (Grade 2, Overall QD (N = 20)): 1 (5.0) n (%); TEAE: Constipation (Grade 2, Overall QD (N = 20)): 2 (10.0) n (%); TEAE: Cough (Grade 2, Overall QD (N = 20)): 0 n (%); TEAE: Decreased appetite (Grade 2, Overall QD (N = 20)): 1 (5.0) n (%); TEAE: Diarrhoea (Grade 2, Overall QD (N = 20)): 3 (15.0) n (%); TEAE: Dysgeusia (Grade 2, Overall QD (N = 20)): 1 (5.0) n (%); TEAE: Dyspnoea (Grade 2, Overall QD (N = 20)): 4 (20.0) n (%); TEAE: Fatigue (Grade 2, Overall QD (N = 20)): 6 (30.0) n (%); TEAE: Gastrointestinal disorders (Grade 2, Overall QD (N = 20)): 6 (30.0) n (%); TEAE: General disorders and administration site conditions (Grade 2, Overall QD (N = 20)): 8 (40.0) n (%); TEAE: Haematuria (Grade 2, Overall QD (N = 20)): 0 n (%); TEAE: Infections and infestations (Grade 2, Overall QD (N = 20)): 3 (15.0) n (%); TEAE: Investigations (Grade 2, Overall QD (N = 20)): 0 n (%); TEAE: Metabolism and nutrition disorders (Grade 2, Overall QD (N = 20)): 2 (10.0) n (%); TEAE: Musculoskeletal and connective tissue disorders (Grade 2, Overall QD (N = 20)): 2 (10.0) n (%); TEAE: Nausea (Grade 2, Overall QD (N = 20)): 4 (20.0) n (%); TEAE: Nervous system disorders (Grade 2, Overall QD (N = 20)): 2 (10.0) n (%); TEAE: Oedema peripheral (Grade 2, Overall QD (N = 20)): 0 n (%); TEAE: Psychiatric disorders (Grade 2, Overall QD (N = 20)): 0 n (%); TEAE: Pyrexia (Grade 2, Overall QD (N = 20)): 1 (5.0) n (%); TEAE: Renal and urinary disorders (Grade 2, Overall QD (N = 20)): 1 (5.0) n (%); TEAE: Respiratory, thoracic, and mediastinal disorders (Grade 2, Overall QD (N = 20)): 6 (30.0) n (%); TEAE: Skin and subcutaneous tissue disorders (Grade 2, Overall QD (N = 20)): 3 (15.0) n (%); TEAE: Urinary tract infection (Grade 2, Overall QD (N = 20)): 1 (5.0) n (%); TEAE: Vascular disorders (Grade 2, Overall QD (N = 20)): 2 (10.0) n (%); TEAE: Vomiting (Grade 2, Overall QD (N = 20)): 2 (10.0) n (%); Any treatment-emergent adverse event (TEAE) [2]: 19 (54.3) n (%); TEAE: Abdominal distension [2]: 2 (5.7) n (%); TEAE: Abdominal pain [2]: 1 (2.9) n (%); TEAE: Back pain [2]: 3 (8.6) n (%); TEAE: Blood and lymphatic system disorders [2]: 1 (2.9) n (%); TEAE: Constipation [2]: 4 (11.4) n (%); TEAE: Cough [2]: 1 (2.9) n (%); TEAE: Decreased appetite [2]: 5 (14.3) n (%); TEAE: Diarrhoea [2]: 5 (14.3) n (%); TEAE: Dysgeusia [2]: 3 (8.6) n (%); TEAE: Dyspnoea [2]: 9 (25.7) n (%); TEAE: Fatigue [2]: 11 (31.4) n (%); TEAE: Gastrointestinal disorders [2]: 11 (31.4) n (%); TEAE: General disorders and administration site conditions [2]: 14 (40.0) n (%); TEAE: Haematuria [2]: 1 (2.9) n (%); TEAE: Infections and infestations [2]: 8 (22.9) n (%); TEAE: Investigations [2]: 1 (2.9) n (%); TEAE: Metabolism and nutrition disorders [2]: 7 (20.0) n (%); TEAE: Musculoskeletal and connective tissue disorders [2]: 5 (14.3) n (%); TEAE: Nausea [2]: 8 (22.9) n (%); TEAE: Nervous system disorders [2]: 4 (11.4) n (%); TEAE: Oedema peripheral [2]: 1 (2.9) n (%); TEAE: Psychiatric disorders [2]: 2 (5.7) n (%); TEAE: Pyrexia [2]: 1 (2.9) n (%); TEAE: Renal and urinary disorders [2]: 2 (5.7) n (%); TEAE: Respiratory, thoracic, and mediastinal disorders [2]: 12 (34.3) n (%); TEAE: Skin and subcutaneous tissue disorders [2]: 3 (8.6) n (%); TEAE: Urinary tract infection [2]: 4 (11.4) n (%); TEAE: Vascular disorders [2]: 3 (8.6) n (%); TEAE: Vomiting [2]: 3 (8.6) n (%); Any treatment-emergent adverse event (TEAE) (Grade 3, Overall BID (N = 15)): 6 (40.0) n (%); TEAE: Blood and lymphatic system disorders (Grade 3, Overall BID (N = 15)): 1 (6.7) n (%); TEAE: Diarrhoea (Grade 3, Overall BID (N = 15)): 1 (6.7) n (%); TEAE: Dyspnoea (Grade 3, Overall BID (N = 15)): 0 n (%); TEAE: Fatigue (Grade 3, Overall BID (N = 15)): 1 (6.7) n (%); TEAE: Gastrointestinal disorders (Grade 3, Overall BID (N = 15)): 1 (6.7) n (%); TEAE: General disorders and administration site conditions (Grade 3, Overall BID (N = 15)): 1 (6.7) n (%); TEAE: Infections and infestations (Grade 3, Overall BID (N = 15)): 1 (6.7) n (%)
